Reference: paper PMC10855902 (International Journal of Molecular Sciences, 2024)

Test system: anti-EGF rabbit polyclonal antibodies (Abcam 9695)
Test: Dot blot of cellulose-immobilized EGF decapeptides with anti-EGF polyclonal antibodies;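 on Intensity (Staining Value): higher gray value means stronger antibody binding with above 120 very strong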
Type: binding
Settings: for Intensity (ability to interact with polyclonal antibodies) / interaction with polyclonal anti-EGF antibodies (in words): peptide on cellulose matrix; for Intensity (ability to interact with polyclonal antibodies): antibody 1:1000, 1 h room temperature; for Intensity (Staining Value): scanned spot, 256 gray scale (ImageJ)
Method: Dot blot reactions were performed using primary anti-EGF rabbit polyclonal antibodies (Abcam 9695) (Cambridge, UK) and secondary goat anti-rabbit antibodies conjugated with HRP (Abcam 205718). The procedure for using the dot blot method to analyze peptides immobilized on a cellulose matrix through a triazine linker was optimized in a previous study by the authors and ensures the elimination of non-specific impacts.
The solution was then removed, and the membranes were treated overnight at room temperature with blocking buffer (3% BSA in PBS, 40 mL, pH 7.4). The cellulose sheets were then washed with PBS buffer (40 mL, 5 min, pH 7.4). […] The membranes were then washed with Tween-80 solution in PBS (0.4%, 40 mL, 2 × 5 min) and PBS (40 mL, 5 min). Goat Anti-Rabbit IgG antibodies were conjugated with HRP (Abcam 205718, 20 μL) diluted 1:1000 in 1% BSA in PBS (20 mL, pH 7.4) and then incubated with cellulose sheets for 30 min at room temperature. The membranes were then washed with Tween-80 solution in PBS (0.4%, 40 mL, 2 × 5 min) and PBS (40 mL, 5 min). Visualization of the reactions was performed using 4-chloro-1-naphtol (Sigma–Aldrich). The cellulose sheets were placed into 0.15 mg/mL solution of 4-chloro-1-naphtol in MeOH:PBS (1:5, 15 mL) with the addition of 7.5 μL of H2O2; reaction time was 30 min. The membranes were washed with distilled water, air-dried, and scanned. In places where immunological complexes developed, blue precipitate was observed. The applied dot blot test procedure ensures the elimination of non-specific interactions. Additionally, using the same SPOT synthesis procedure, a library of type IV collagen fragments was obtained. […] The gray levels of the immunological reactions were determined using ImageJ Version 1.53n7 (https://imagej.nih.gov/ij/index.html, accessed on 17 October 2021) computer imaging software.

Row | Substance | Intensity (ability to interact with polyclonal antibodies) | Intensity (Staining Value) | interaction with polyclonal anti-EGF antibodies (in words)
1 | H-^33CVVGYIGERC^42-matrix [B13] | +/− (moderately strong (+/−), for which the color intensity value was in the range of 90–45) | 65.7 | –
2 | H-^34VVGYIGERCQ^43-matrix [B14] | +/− (moderately strong (+/−), for which the color intensity value was in the range of 90–45) | 69.4 | –
3 | H-^35VGYIGERCQY^44-matrix [B15] | + (strong (+), for which the staining intensity value was in the range of 120–90) | 91.0 | –
4 | H-^36GYIGERCQYR^45-matrix [B16] | + (strong (+), for which the staining intensity value was in the range of 120–90) | 98.0 | –
5 | H-^37YIGERCQYRD^46-matrix [B17] | + (strong (+), for which the staining intensity value was in the range of 120–90) | 106.2 | –
6 | H-^38IGERCQYRDL^47-matrix [B18] | +/− (moderately strong (+/−), for which the color intensity value was in the range of 90–45) | 76.1 | –
7 | H-^39GERCQYRDLK^48-matrix [B19] | − ((−), where the color intensity value was <45) | 28.9 | do not exhibit the ability to interact with antibodies
8 | H-^40ERCQYRDLKW^49-matrix [B20] | – | – | do not exhibit the ability to interact with antibodies
9 | H-^41RCQYRDLKWW^50-matrix [C1] | + (strong (+), for which the staining intensity value was in the range of 120–90) | 91.5 | moderate binding to antibodies
10 | H-^42CQYRDLKWWE^51-matrix [C2] | + (strong (+), for which the staining intensity value was in the range of 120–90) | 91.4 | moderate binding to antibodies
11 | H-^43QYRDLKWWEL^52-matrix [C3] | + (strong (+), for which the staining intensity value was in the range of 120–90) | 99.4 | show interactions with polyclonal anti-EGF antibodies
12 | H-^44YRDLKWWELR^53-matrix [C4] | + (strong (+), for which the staining intensity value was in the range of 120–90) | 104.2 | show interactions with polyclonal anti-EGF antibodies
